Laboratory results from patent US20180271923A1, “COMPOSITION FOR PREVENTING OR TREATING MENOPAUSAL DISORDERS, CONTAINING TETRAGONIA TETRAGONOIDES (PALL.) KUNTZE EXTRACT” (Korea Institute of Oriental Medicine, priority 2015, published 2018).
Marks after values point to notes of the source that are not given here.

Columns and labels:
Format in all cases: in vivo
ovariectomized rats [1] = assay: Evaluation on menopause inducement in ovariectomized rats (weight of uterus, serum 17β-estradiol by RIA kit); details: n = 12, means ± SD, Table 1
Procedure: Rats were ovariectomized to induce menopause, and weight of uterus and serum levels of 17β-estradiol that is a kind of female hormones were measured to determine whether menopause was induced in the rats. Specifically, the rats were sacrificed, and then their uteri were removed and weighed. A serum concentration of 17β-estradiol was measured with an RIA kit (Linco Research Inc.).

ovariectomized rats [2] = assay: Body weight, visceral fat, uterus weight and calorie uptake at end of experiment in ovariectomized rats on high-fat diet
Procedure: In order to confirm efficacies of the Tetragonia tetragonoides (Pall.) Kuntze extract prepared according to Preparation Example 1 for ameliorating menopausal obesity, rats were ovariectomized and, at the same time, obesity-induced. The rats were fed with the Tetragonia tetragonoides (Pall.) Kuntze extract, and effects of the extract on visceral fat were evaluated. Specifically, the ovariectomized rats were fed with a high-fat diet (HFD) consisting of 40% energy (En %) of carbohydrate, 20 En % of protein, and 40 En % of fat, along with dextrin. The high-fat diet was made to contain 2% (w/w) of the Tetragonia tetragonoides (Pall.) Kuntze extract, and the rats were offered ad libitum access to the diet for 8 weeks. On the other hand, in the positive-control, the ovariectomized rats received 17β-estradiol which is a hormone preparation and were fed with a diet in which the high fat diet is mixed with dextrin for 8 weeks. Then, at the end of the experiment, a body weight, a mass of visceral fat including peri-uterine fat and fat in retroperitoneum, an energy consumption, and the like were measured.

ovariectomized rats [3] = assay: Energy consumption by indirect calorimetry in ovariectomized rats; details: indirect calorimetry after 8 weeks, 6 hours fasting, n = 12, means ± SD
Text: Specifically, the ovariectomized rats were fed with a high-fat diet (HFD) consisting of 40% energy (En %) of carbohydrate, 20 En % of protein, and 40 En % of fat, along with dextrin. The high-fat diet was made to contain 2% (w/w) of the Tetragonia tetragonoides (Pall.) Kuntze extract, and the rats were offered ad libitum access to the diet for 8 weeks. On the other hand, in the positive-control, the ovariectomized rats received 17β-estradiol which is a hormone preparation and were fed with a diet in which the high fat diet is mixed with dextrin for 8 weeks. Then, at the end of the experiment, a body weight, a mass of visceral fat including peri-uterine fat and fat in retroperitoneum, an energy consumption, and the like were measured. The energy consumption was analyzed by indirect calorimetry. Specifically, after the Tetragonia tetragonoides (Pall.) Kuntze extract was fed for 8 weeks, and a fasting state of 6 hours was induced, the energy consumption was measured at the time of beginning of a dark period in light/dark cycle. In order to analyze calorimetric parameters, a metabolic chamber (airflow=800 ml/min) equipped with a computer-controlled O2 and CO2 measurement system (BIOPAC Systems, Inc., Goleta, Calif.) was utilized, and respiratory quotient (RQ) and resting energy expenditure (REE) were calculated using equations. An average oxygen uptake (VO2) and an average carbon dioxide emission (VCO2) were measured over 30 minutes. After the experiment, data were averaged at 1 minute intervals and the VO2 and VCO2 values were calibrated to a body size (kg^0.75). Oxidation of carbohydrate and fat was calculated as a non-protein oxygen uptake, that is, a relative oxidation rate and an oxygen amount consumed per gram (g) of oxidized substrate.

ovariectomized rats [4] = assay: Serum triglyceride, glucose, insulin, cholesterol levels and HOMA-IR in overnight-fasted ovariectomized rats; details: n = 12, means ± SD
Procedure: In order to confirm efficacies of the Tetragonia tetragonoides (Pall.) Kuntze extract prepared according to Preparation Example 1 for ameliorating menopausal obesity, rats were ovariectomized and, at the same time, obesity-induced. The rats were fed with the Tetragonia tetragonoides (Pall.) Kuntze extract, and effects of the extract on obesity-related parameters in blood were evaluated. The ovariectomized rats were fed with the Tetragonia tetragonoides (Pall.) Kuntze by the method according to Example 1-1. Then, at the end of the experiment, the rats were fasted overnight and masses of serum glucose, insulin, and triglyceride were measured. Specifically, the rats were fasted for 16 hours, and then blood was collected from tails. Fasting serum glucose levels were measured by a Beckman glucometer and serum insulin concentrations were measured by radioimmunoassay. Fasting blood glucose, food and water intake, and body weight were measured at 10 a.m. on every Tuesday. Based on the above results, a homeostasis model assessment of insulin resistance (HOMA-IR) concentration which is used as a marker of insulin resistance was calculated, and the following Equation 1 was used for such calculation. HOMA-IR=fasting insulin(μIU/ml)×fasting glucose(mM)/22.5 [Equation 1]

[5] = ovariectomized rats, high-fat diet, 8 weeks, n = 12, means ± SD
[6] = serum, overnight-fasted ovariectomized rats

For `C[C@]12CC[C@@H]3c4ccc(O)cc4CC[C@H]3[C@@H]1CC[C@@H]2O` [Positive-control, 17β-estradiol], the Weight of uterus (ovariectomized rats [1]) was 0.61 ± 0.22^a g, the “weight of uterus (proliferation of uterus, side effect of hormone therapies)” value (ovariectomized rats [2]; in words) was “increase” and the Body weight (ovariectomized rats [2]; ovariectomized rats, high-fat diet with 2% (w/w) extract for 8 weeks (positive-control: 17β-estradiol), end of experiment, n = 12, means ± SD) was 369 ± 26^b g. The Body weight gain (ovariectomized rats [2]; [5]) was 70.0 ± 11.5^c g, the Fat in retroperitoneum (ovariectomized rats [2]; [5]) was 5.7 ± 1.6^c g and the Peri-uterine fat (ovariectomized rats [2]; [5]) was 7.2 ± 1.6^d g. For the same molecule, the Weight of uterus (ovariectomized rats [2]; ovariectomized rats, high-fat diet, 8 weeks, n = 12, means ± SD, Table 2) was 0.61 ± 0.22^a g, the Visceral fat (ovariectomized rats [2]; peri-uterine fat and fat in retroperitoneum, ovariectomized rats, high-fat diet, 8 weeks, n = 12, means ± SD) was 12.9 ± 2.6^c g and the Daily energy consumption (ovariectomized rats [3]; beginning of dark period) was 117 ± 15^a kcal/kg^0.75/day. The Carbohydrate oxidation (ovariectomized rats [3]) was 5.6 ± 0.7^b mg/kg^0.75/min, the Fat oxidation (ovariectomized rats [3]) was 6.9 ± 0.8^b mg/kg^0.75/min and the HOMA-IR (ovariectomized rats [4]; fasting insulin × fasting glucose / 22.5 (Equation 1)) was 6.8 ± 0.9^c. For the same molecule, the Glucose levels (ovariectomized rats [4]; serum, overnight-fasted (16 hours) ovariectomized rats, end of experiment) was 109 ± 13^b mg/dL, the HDL cholesterol (ovariectomized rats [4]; [6]) was 23.2 ± 1.5^a mg/dL and the Total cholesterol (ovariectomized rats [4]; [6]) was 85.0 ± 7.6^c mg/dL. The Triglyceride levels (ovariectomized rats [4]; [6]) was 65.7 ± 5.8^b mg/dL and the Insulin levels (ovariectomized rats [4]; serum, overnight-fasted ovariectomized rats, radioimmunoassay) was 1.14 ± 0.19^b ng/mL.
